This note sets out measurements from paper PMC3894558, “Chemical signatures and new drug targets for gametocytocidal drug development” (Scientific Reports, 2014).

For this assay, the system named is P. falciparum 3D7 gametocytes. Briefly: alamarBlue gametocyte viability assay, strain 3D7. It counts as cell-based, Plasmodium falciparum. The following applies: Malaria Box; for Max Resp: DMSO set at 0%, 100 nM epoxomicin set at -100%; for Curve Class / IC50: stages III-V 3D7 gametocytes; for IC50: 11 concentrations, 1:3 dilution.

Where two headings read alike, the source gives them in different places.

Procedure: Asexual parasites of P. falciparum strain 3D7 were cultured as described previously[55]. Briefly, gametocyte cultures were set up at 0.1% parasitemia and on days 9–10 treated with 50 mM N-acetylglucosamine (NAG) to block further asexual growth. Stage III–V gametocytes were isolated by Percoll density gradient centrifugation on day 12 and returned to culture for 24 hrs before being used in the assay[9]. […] Growth medium was made with Dulbecco's Modified Eagle Medium with 10% fetal bovine serum (FBS).
Compound screening experiments were performed as previously described[11]. Briefly, 2.5 μl/well incomplete medium was dispensed into each well of 1,536-well plates using the Multidrop Combi followed by 23 nl compound transferring using the NX-TR Pintool (WAKO Scientific Solutions, San Diego, CA). Then, 2.5 μl/well of gametocytes was dispensed with a seeding density of 20,000 cells/well using the Multidrop Combi. The assay plates were incubated for 72 hrs at 37°C with 5% CO2.
The primary screen data was analyzed using customized software developed internally[58]. IC50 values were calculated using the Prism software (Graphpad Software, Inc. San Diego, CA). Data were presented as means ± SEM with n = 3 independent experiments.

Take `O=C(O)C1Cc2c([nH]c3ccccc23)C(c2ccc(Cl)cc2Cl)N1` (stereo not drawn) [MMV008138]: the “Max Resp” value is given as -1%, the “Curve Class” value worked out at 4 and the IC50 result is recorded as “Inactive”.

As to `Cc1ccc(F)cc1NC(=O)c1cc(Cl)ccc1Nc1ccccc1` [MMV007275], the “Max Resp” value is -41%, the “Curve Class” value was -2.2 and the half-maximal inhibitory concentration (IC50) result is “Inactive”.

Take `COc1ccc(Br)cc1C1Nc2ccc3ccccc3c2C2=C1C(=O)CC(c1ccccc1)C2` (stereo not drawn) [MMV020885]: the “Max Resp” value is -29%, the “Curve Class” value is recorded as 4 and the IC50 entry was “Inactive”.

On to `COc1cccc(Cn2c(Oc3ccccc3)nc3c2c(=O)n(C)c(=O)n3C)c1` [MMV396705], for which the “Max Resp” value was -1%, the “Curve Class” value is on record as 4 and the IC50 entry is listed as “Inactive”.

Consider `Cc1ccccc1OCCSc1nc2ccc(NC(=O)c3cccs3)cc2s1` [MMV007396], for which the “Max Resp” value stood at 23%, the “Curve Class” value is reported as 4 and the concentration for half-maximal inhibition (IC50) entry is “Inactive”.

Consider `CN(C)c1ccc(N2C(N)=NC(N)=NC2(C)C)cc1` [MMV667487], for which the “Max Resp” value is reported as -4%, the “Curve Class” value came out at 4 and the IC50 entry is recorded as “Inactive”.

As for `CCCCCCC(O)(c1ccc(F)cc1)C(CN1CCOCC1)c1ccccc1.Cl` (stereo not drawn) [MMV000621], the “Max Resp” value is listed as -59% and the “Curve Class” value is -2.2. For the same molecule, the IC50 (read-out: IC50) was found to be 37.2 µM.

Take `CCCC(c1nnnn1C1CCCCC1)N1CCN(C(=O)c2ccco2)CC1.Cl` (stereo not drawn) [MMV666093]: the “Max Resp” value is -10%, the “Curve Class” value worked out at 4 and the IC50 entry is on record as “Inactive”.

Turning to `Cc1cc(Nc2cccc(F)c2)nc(NCc2ccccc2)n1` [MMV006319], the “Max Resp” value is given as -60% and the “Curve Class” value was -2.2. For the same molecule, the 50% inhibitory concentration (IC50) (read-out: IC50) worked out at 29.6 µM.

On to `COc1ccc(-c2nonc2NC(=O)c2cccc(C)c2)cc1OC` [MMV665890], for which the “Max Resp” value is on record as -38%, the “Curve Class” value was -3 and the 50% inhibitory concentration (IC50) entry is “Inactive”.

`O=C1c2ccccc2-c2nnc(-c3ccc(Br)cc3)cc21` [MMV665934]: the “Max Resp” value is 17%, the “Curve Class” value was determined as 4 and the IC50 result was “Inactive”.

On to `CCOc1c(Cl)cc(CNC(C)C(O)c2ccccc2)cc1OC` (stereo not drawn) [MMV665857], for which the “Max Resp” value was -77% and the “Curve Class” value is listed as -2.2. Moreover, the IC50 (read-out: IC50) came out at 14.8 µM.

In the case of `COc1ccc(CCN2CCC(CN(C)Cc3cnn(-c4ccccc4)c3)CC2)cc1` [MMV666069], the “Max Resp” value is listed as -86% and the “Curve Class” value is on record as -2.1. In addition, the IC50 (read-out: IC50) was 10.5 µM.

Regarding `CCC(O)c1ccc(Br)cc1NC(=O)c1cccc(Cl)c1` (stereo not drawn) [MMV020654], the “Max Resp” value is given as -37% and the “Curve Class” value was -1.2. Moreover, the half-maximal inhibitory concentration (IC50) (read-out: IC50) was found to be 2.09 µM.

In the case of `OC(CNCC1CCCO1)Cn1c2ccc(Cl)cc2c2cc(Cl)ccc21` (stereo not drawn) [MMV396736], the “Max Resp” value is given as -70% and the “Curve Class” value is recorded as -2.2. Under “read-out: IC50”, the IC50 came to 23.5 µM.

`CCOC(=O)C1=C(C)N=c2sc(=Cc3cc(Cl)ccc3O)c(=O)n2C1c1ccc(OC)cc1` (stereo not drawn) [MMV665971]: the “Max Resp” value is listed as -40% and the “Curve Class” value is -1.2. For the setting “read-out: IC50”, the concentration for half-maximal inhibition (IC50) turned out to be 2.96 µM.

For `O=C(CCc1ccccc1)c1ccccc1OCC(O)CN1CCCCC1` (stereo not drawn) [MMV009015], the “Max Resp” value was -74% and the “Curve Class” value is -2.2. Besides, where the note is “read-out: IC50”, the half-maximal inhibitory concentration (IC50) came to 7.43 µM.

As for `Cc1cc(Nc2ccc(Cl)cc2)n2nc(C(F)(F)F)nc2n1` [MMV011256], the “Max Resp” value is reported as -9%, the “Curve Class” value came to 4 and the IC50 entry is “Inactive”.

In the case of `Cn1c(=O)c2cc(C(=O)NCCCN3CCCCCC3)sc2c2ccccc21` [MMV019313], the “Max Resp” value is -46%, the “Curve Class” value is recorded as -2.2 and the IC50 result is recorded as “Inactive”.

For `Cc1ccc(-c2cc3c(SCC(=O)Nc4cc(C(F)(F)F)ccc4Cl)nccn3n2)cc1` [MMV396680], the “Max Resp” value is recorded as -21%, the “Curve Class” value amounted to 4 and the concentration for half-maximal inhibition (IC50) entry is “Inactive”.

Consider `CC(=O)NCCc1nc2ccccc2n1Cc1ccc(C(C)C)cc1` [MMV007617], for which the “Max Resp” value was -70% and the “Curve Class” value is recorded as -2.2. Moreover, the IC50 (read-out: IC50) amounted to 23.5 µM.

Consider `CCOC(=O)C1=C(c2ccccc2)N=c2sc(=Cc3cc(C)n(-c4ccc(F)cc4)c3C)c(=O)n2C1c1cccc(OC)c1OC` (stereo not drawn) [MMV666601], for which the “Max Resp” value is given as -26%, the “Curve Class” value was 4 and the IC50 result was “Inactive”.

With `Cc1cc(Nc2ccc(OCc3ccccc3)cc2)nc2cc(O)ccc12` [MMV007181], the “Max Resp” value is -30% and the “Curve Class” value is on record as -1.2. Further, for the setting “read-out: IC50”, the half-maximal inhibitory concentration (IC50) was found to be 0.59 µM.

Turning to `CC(=O)c1ccc(NC(=O)CSc2nc(-c3ccccc3Cl)ns2)cc1` [MMV666124], the “Max Resp” value is listed as -33%, the “Curve Class” value is recorded as -3 and the IC50 entry was “Inactive”.

Turning to `N=c1c2ccccc2nnn1-c1cccc(C(F)(F)F)c1` [MMV665923], the “Max Resp” value turned out to be 14%, the “Curve Class” value is reported as 4 and the 50% inhibitory concentration (IC50) result was “Inactive”.

For `CC(C)CCNCC(O)Cn1c2ccccc2c2ccccc21.Cl` (stereo not drawn) [MMV006787], the “Max Resp” value is listed as -94% and the “Curve Class” value was -1.1. Further, the IC50 (read-out: IC50) is 2.64 µM.

As for `COc1cccc(NC(=O)[C@H](C(C)C)n2c(=O)[nH]c3ccccc3c2=O)c1` [MMV665878], the “Max Resp” value is -82% and the “Curve Class” value is listed as -1.1. Further, under “read-out: IC50”, the IC50 turned out to be 2.64 µM.

For `COc1ccc(-c2nc(N3CCN(C(=O)C4CCCCC4)CC3)c3c4c(sc3n2)CCCC4)cc1` [MMV396594], the “Max Resp” value was -12%, the “Curve Class” value is given as 4 and the 50% inhibitory concentration (IC50) entry was “Inactive”.

`Cc1ccc(OCCCCCCNCCO)c(C)c1` [MMV666020]: the “Max Resp” value was -64% and the “Curve Class” value is -2.2. Under “read-out: IC50”, the half-maximal inhibitory concentration (IC50) amounted to 37.2 µM.

As for `Cc1cc(Nc2ccc(C)c(Cl)c2)n2nc(C(F)(F)F)nc2n1` [MMV665874], the “Max Resp” value was -2%, the “Curve Class” value was determined as 4 and the IC50 entry is “Inactive”.

For `CCC(c1ccccc1)c1nn2c(-c3cccs3)nnc2s1` (stereo not drawn) [MMV665876], the “Max Resp” value is -47%, the “Curve Class” value was -2.2 and the concentration for half-maximal inhibition (IC50) entry is reported as “Inactive”.

For `Clc1ccc2c(N3CCCC3)ccnc2c1` [MMV007363], the “Max Resp” value is -75% and the “Curve Class” value is listed as -2.2. Moreover, for the setting “read-out: IC50”, the IC50 was determined as 23.5 µM.

In the case of `Fc1ccc2[nH]c3c(NCCCN4CCOCC4)ncnc3c2c1` [MMV019871], the “Max Resp” value is reported as -42%, the “Curve Class” value is given as -2.2 and the 50% inhibitory concentration (IC50) result was “Inactive”.

As for `Oc1ccc(C(=C(Cl)Cl)c2ccc(O)cc2)cc1` [MMV665949], the “Max Resp” value was -40% and the “Curve Class” value is -1.2. Moreover, where the note is “read-out: IC50”, the IC50 is 9.35 µM.

Consider `COc1ccc(-c2nc3cc(Cc4ccc5[nH]c(-c6ccc(OC)cc6)nc5c4)ccc3[nH]2)cc1` [MMV007384], for which the “Max Resp” value is -59% and the “Curve Class” value was -2.2. Moreover, the half-inhibitory concentration (IC50) (read-out: IC50) came out at 37.2 µM.

In the case of `Cc1ccc(C2CC(C(F)(F)F)n3nc(C(=O)N4CCN(C(c5ccccc5)c5ccccc5)CC4)cc3N2)cc1` (stereo not drawn) [MMV000699], the “Max Resp” value was -70% and the “Curve Class” value is reported as -2.2. Besides, the 50% inhibitory concentration (IC50) (read-out: IC50) was found to be 29.6 µM.

As for `O=C(Nc1ccc(-c2nc3cc4ccccc4cc3[nH]2)cc1)c1cccc(Br)c1` [MMV019241], the “Max Resp” value was -32%, the “Curve Class” value is given as -2.4 and the concentration for half-maximal inhibition (IC50) entry was “Inactive”.

In the case of `COc1ccc(-c2nc(NC(=O)CS(=O)(=O)c3ccc(F)cc3)sc2C)cc1` [MMV665915], the “Max Resp” value is -44%, the “Curve Class” value was -2.2 and the IC50 result is “Inactive”.

On to `COc1cccc(C=Cc2nc(=O)c3ccccc3o2)c1OC` [MMV666693], for which the “Max Resp” value is 19%, the “Curve Class” value stood at 4 and the IC50 entry was “Inactive”.

In the case of `CCOC(=O)c1cnc2ccc(Cl)cc2c1NCCCN(C)C` [MMV006882], the “Max Resp” value is on record as -43%, the “Curve Class” value is given as -2.2 and the IC50 entry is reported as “Inactive”.

For `Cc1ccc(S(=O)(=O)c2c(COC(=O)c3cccc(C)c3)c(-c3ccccc3)nn2C)cc1` [MMV665936], the “Max Resp” value is given as 5%, the “Curve Class” value is listed as 4 and the IC50 entry is reported as “Inactive”.

Regarding `Cc1ccc2c(C)nc(Nc3nc(C)cc(-c4ccccc4)n3)nc2c1` [MMV007041], the “Max Resp” value is recorded as -50%, the “Curve Class” value was -2.2 and the concentration for half-maximal inhibition (IC50) entry is given as “Inactive”.

Consider `CCn1c(SCC(=O)Nc2cc(C(F)(F)F)ccc2Cl)nc2ccccc2c1=O` [MMV666103], for which the “Max Resp” value was -11%, the “Curve Class” value is 4 and the concentration for half-maximal inhibition (IC50) result is recorded as “Inactive”.

On to `COc1cc(SC)ccc1C(=O)N1CCCC(C)C1` (stereo not drawn) [MMV056726], for which the “Max Resp” value is recorded as -5%, the “Curve Class” value was determined as 4 and the IC50 entry is listed as “Inactive”.

In the case of `CCOC(=O)c1cnc2ccc(OC)cc2c1Nc1ccc(N2CCN(C)CC2)cc1` [MMV000704], the “Max Resp” value is -69% and the “Curve Class” value was -2.2. For the same molecule, under “read-out: IC50”, the IC50 amounted to 23.5 µM.

Take `O=c1cc(NC2CCN(CCCc3ccccc3)CC2)c2cc(Cl)ccc2o1` [MMV665786]: the “Max Resp” value is listed as -89% and the “Curve Class” value is on record as -2.1. For the same molecule, the IC50 (read-out: IC50) was determined as 14.8 µM.

On to `CCCCNc1nc(NC(C)(C)C)nc(NC(C)(C)C)n1` [MMV665864], for which the “Max Resp” value was -93% and the “Curve Class” value was -2.1. The IC50 (read-out: IC50) worked out at 13.2 µM.
